Entries after “also recorded” stand apart in the source; their conditions may differ.
Columns and labels:
[1] = design: species or system BALB/c mice; details: mouse, in vivo
Source text: Each group contained 5 mice.

CXCL1 [2] = experiment: Mouse RV1B infection with fluticasone propionate: CXCL1 in BAL by ELISA; assay type: in vivo, BALB/c mice; details: 2 pmol INNA-006, with or without FP; day 2 p.i.
TNF-α = experiment: Mouse RV1B infection with fluticasone propionate: TNF-α in BAL by ELISA; assay type: in vivo, BALB/c mice
[3] = system: other TLR pattern recognition receptors; experiment: TLR panel NF-κB SEAP reporter in HEK293 cells: other TLRs; assay type: cell-based; details: human and mouse TLR panels
Procedure: (§1) INNA-006 was assessed for its ability to activate a range of other TLR pattern recognition receptors. These assessments were conducted using both human and mouse TLR panels. These assays detect a secreted embryonic alkaline phosphatase (SEAP) reporter under the control of a promoter which is inducible by NF-κB activation in HEK293 cells. The secreted embryonic alkaline phosphatase (SEAP) reporter is under the control of a promoter inducible by the transcription factor NF-κB. This reporter gene allows the monitoring of signaling through the TLR, based on the activation of NF-κB. In a 96-well plate (200 μL total volume) containing the appropriate cells (50,000-75,000 cells/well), 20 μL of the test article or the positive control ligand is added to the wells. The media added to the wells is designed for the detection of NF-κB induced SEAP expression. After a 16-24 hr incubation the optical density (OD) is read at 650 nm on a Molecular Devices SpectraMax 340PC absorbance detector.

BAL inflammatory cells [4] = experiment: Mouse RV1B infection model: BAL cell analysis
Procedure: Following sacrifice, mice were tracheally cannulated and 1 ml of Hanks buffered saline solution (Hyclone™, GE Life Sciences) flushed through the airways, 3-5 times. BAL cells were pelleted by centrifugation and supernatant was collected and stored at −80° C. for ELISAs. The pelleted cells were red blood cells lysed and the remaining cells were counted on a heamocytometer by trypan blue exclusion. Cell suspensions were then cytocentrifuged onto slides and fixed and stained with Diff Quick (POCD) solutions as per manufacturer's recommendations. A minimum of 200 total cells were counted per slide and numbers of neutrophils, lymphocytes, and macrophages were determined.

TNFα = experiment: Mouse RV1B infection model: TNFα in BAL by ELISA
Procedure: (§2) Remaining lung lobes we snap frozen in liquid nitrogen, homogenised in 600 μl PBS containing protease inhibitors (Roche) by TissueLyser II run twice at 30 Hz for 4 minutes. Cell debris was pelleted by centrifugation, samples were diluted 1:2 with PBS and stored at −80° C. BAL fluid was then analysed for production of KC/IL-8 (CXCL1) and TNF-α by Duoset ELISA (R&D Systems) as per manufacturer's instructions.

CXCL1 [5] = experiment: Mouse RV1B infection model: CXCL1 in BAL by ELISA
Procedure: as §2

[6] = system: Rhinovirus serotype 1B (RV1B); experiment: Mouse RV1B infection model: lung viral RNA by qPCR; details: for lung viral load: day +1
TLR-2 = TLR-2 (Homo sapiens, UniProt O60603); experiment: TLR panel NF-κB SEAP reporter in HEK293 cells: TLR-2; assay type: cell-based; design: expressed in transfected cells; host or cells: HEK293; details: human and mouse TLR panels, FIG. 21
Sequence of TLR-2 (O60603 21-784): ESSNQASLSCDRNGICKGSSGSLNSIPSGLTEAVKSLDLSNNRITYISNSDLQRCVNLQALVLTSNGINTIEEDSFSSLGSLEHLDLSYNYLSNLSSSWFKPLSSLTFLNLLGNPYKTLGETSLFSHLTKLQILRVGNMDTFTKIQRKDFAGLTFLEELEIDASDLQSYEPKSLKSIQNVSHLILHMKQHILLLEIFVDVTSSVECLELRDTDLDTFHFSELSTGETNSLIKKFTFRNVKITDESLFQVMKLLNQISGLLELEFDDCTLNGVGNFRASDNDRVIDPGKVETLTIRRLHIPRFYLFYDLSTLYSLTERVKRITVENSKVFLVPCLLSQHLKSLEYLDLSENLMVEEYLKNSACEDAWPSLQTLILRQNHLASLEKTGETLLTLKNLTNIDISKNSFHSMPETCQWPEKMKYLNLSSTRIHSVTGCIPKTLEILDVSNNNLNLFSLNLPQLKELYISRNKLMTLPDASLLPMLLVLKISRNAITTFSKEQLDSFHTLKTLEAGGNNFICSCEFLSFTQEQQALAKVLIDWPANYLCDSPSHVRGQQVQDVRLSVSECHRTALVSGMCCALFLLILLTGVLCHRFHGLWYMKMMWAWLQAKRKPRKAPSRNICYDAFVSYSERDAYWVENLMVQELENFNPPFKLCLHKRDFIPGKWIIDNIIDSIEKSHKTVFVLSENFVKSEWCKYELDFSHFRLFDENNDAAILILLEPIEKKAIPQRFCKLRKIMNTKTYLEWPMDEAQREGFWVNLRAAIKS
Sequence of TLR-2 (Q9Y2C9 32-796 partner): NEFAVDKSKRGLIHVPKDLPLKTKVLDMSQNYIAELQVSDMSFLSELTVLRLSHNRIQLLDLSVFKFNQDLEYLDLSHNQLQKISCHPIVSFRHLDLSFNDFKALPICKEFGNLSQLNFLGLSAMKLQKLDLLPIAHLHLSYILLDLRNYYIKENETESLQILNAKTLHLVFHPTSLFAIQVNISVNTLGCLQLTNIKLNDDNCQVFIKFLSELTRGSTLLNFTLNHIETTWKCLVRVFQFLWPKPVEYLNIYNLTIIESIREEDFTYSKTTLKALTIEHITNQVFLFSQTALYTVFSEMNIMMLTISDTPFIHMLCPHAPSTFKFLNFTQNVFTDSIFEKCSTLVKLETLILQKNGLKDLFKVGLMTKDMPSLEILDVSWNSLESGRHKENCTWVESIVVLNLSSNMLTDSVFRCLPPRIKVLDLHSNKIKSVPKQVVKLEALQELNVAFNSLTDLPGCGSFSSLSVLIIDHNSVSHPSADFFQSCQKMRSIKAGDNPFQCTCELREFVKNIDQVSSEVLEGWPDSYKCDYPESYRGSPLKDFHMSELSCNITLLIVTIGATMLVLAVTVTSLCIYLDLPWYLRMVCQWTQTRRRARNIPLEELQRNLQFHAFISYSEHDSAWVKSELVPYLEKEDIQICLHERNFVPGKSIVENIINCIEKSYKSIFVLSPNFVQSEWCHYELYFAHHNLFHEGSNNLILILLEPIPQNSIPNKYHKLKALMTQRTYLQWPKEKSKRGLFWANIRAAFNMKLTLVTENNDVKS
Procedure: as §1

BAL inflammatory cells [7] = experiment: Mouse RV1B infection with fluticasone propionate: BAL cell analysis
Procedure: Following sacrifice, mice were tracheally cannulated and 1 ml of Hanks buffered saline solution (Hyclone™, GE Life Sciences) flushed through the airways, 3-5 times. BAL cells were pelleted by centrifugation and supernatant was collected and stored at −80° C. for ELISAs. The pelleted cells were red blood cells lysed and the remaining cells were counted on a heamocytometer by trypan blue exclusion. Cell suspensions were then cytocentrifuged onto slides and fixed and stained with Diff Quick (POCD) solutions as per manufacturers recommendations. A minimum of 200 total cells were counted per slide and numbers of neutrophils, lymphocytes, and macrophages were determined.

RV1B = RV1B infection of ALI-differentiated BCi-NS1 cells: viral RNA by qPCR; details: 20 nM and 2 nM pre-treatment 24 h; 96 h post infection; vs control
[8] = system: Rhinovirus serotype 1B (RV1B); experiment: Mouse RV1B infection with fluticasone propionate: lung viral RNA by qPCR
[9] = Study 1G: lowest doses (2 pmole and 1 pmole) day +1, listed as Peg-S-Pam2Cys

CCC(=O)OCC(CSCC(N)C(=O)NC(CO)C(=O)NCCOCC(=O)NCC(N)=O)OC(=O)CC (stereo not drawn) [INNA-006, Pam2Cys-Ser-PEG]
weight loss [1]: weight loss at the higher doses
weight loss after second dose [1]: no weight loss observed
CXCL1 in BAL (CXCL1 [2]): neutrophil chemokine production supressed; also recorded: supressed CXCL1 production; also recorded: drastically reduced levels of mouse neutrophil chemokine CXCL1; also recorded: highly effective at suppressing CXCL1 expression
TNF-α in BAL (TNF-α; repeated doses (D-7 & D-1)): not observed
TNF-α in BAL (TNF-α; single 2 pmol dose seven days prior to infection): significant TNF-α production in BAL
activation of other TLRs (SEAP reporter) [3]: no activation of any other TLR tested
RV-induced BAL neutrophilic inflammation (BAL inflammatory cells [4]; Study 1E: day −7, day 2 p.i., listed as Peg-S-Pam2Cys): reduced RV-induced BAL neutrophilic inflammation; also recorded: reduced RV-induced neutrohillic inflammation; also recorded: significantly reduced neutrophilic inflammation
BAL macrophages (BAL inflammatory cells [4]; Study 1F: 2 pmol day −7, mock): higher numbers of macrophages compared to its saline mock control group
BAL lymphocytes (BAL inflammatory cells [4]; Study 1F: 2 pmol, day −7, day −1 or both): promoted lymphocyte recruitment in the BAL
total BAL leukocytes in RV1B infected mice (BAL inflammatory cells [4]; Study 1F: 2 pmol, vs Saline RV): did not induce significantly higher leukocyte recruitment
total BAL leukocytes in mock infected mice (BAL inflammatory cells [4]; Study 1F: 2 pmol, vs Saline mock): Total leukocytes were increased
neutrophilic response in uninfected mice (BAL inflammatory cells [4]; Study 1F: three days after dosing (d-1 groups)): not Peg-S-Pam2Cys
BAL lymphocytes (BAL inflammatory cells [4]; Study 1G: day +1 treatment): no changes to lymphocyte numbers
BAL macrophages (BAL inflammatory cells [4]; Study 1G: day +1 treatment): significantly reducing macrophage numbers
total BAL leucocyte numbers (BAL inflammatory cells [4]; Study 1G: day +1 treatment): no significant differences
BAL neutrophils (BAL inflammatory cells [4]; Study 1G: day +1 treatment, listed as Peg-S-Pam2Cys): drastically increases neutrophil numbers in BAL; also recorded: increasing neutrophil recruitment
TNF-α in BAL (TNFα; Study 1E: day −7, listed as Peg-S-Pam2Cys): not increased by any of the compounds; also recorded: lack of induction of TNFα
TNF-α in BAL (TNFα; Study 1F: 2 pmol, all groups): did not induce TNF-α in any of the groups
TNF-α in BAL (TNFα; Study 1G: 10-1 pmol day +1): dose dependent upon drug treatment
TNF-α in BAL (TNFα; [9]): not increased by the lowest doses; also recorded: no significant increase in KC or TNFα
RV-induced expression of CXCL1 (CXCL1 [5]; Study 1E(ii): INNA-011 and INNA-006 comparison, day −7): reduced RV-induced expression of CXCL1
CXCL1 in BAL (CXCL1 [5]; Study 1E: 10 pmol and 5 pmol dose day −7): effectively reduced CXCL1 levels
CXCL1 in BAL (CXCL1 [5]; Study 1F: 2 pmol day −1, RV1B, listed as Peg-S-Pam2Cys): CXCL1 production was only increased; also recorded: significantly increased in mice treated one day prior to infection
CXCL1 / lung inflammation after day −1 dose with prior day −7 dose (CXCL1 [5]; Study 1F: 2 pmol day −7 and day −1, listed as Peg-S-Pam2Cys): protected from lung inflammation; also recorded: completely abolished
CXCL1 in BAL (CXCL1 [5]; Study 1G: 10-1 pmol day +1): dose dependent upon drug treatment
CXCL1 (KC) in BAL (CXCL1 [5]; [9]): not increased by the lowest doses; also recorded: no significant increase in KC or TNFα
reduction of RV infection (lung RV copy number) ([6]; Study 1E: 10 pmol day −7): 86.76%
anti-viral efficacy relative to Pam2CysSK4 ([6]; Study 1E: 10 pmol dose day −7, listed as Peg-S-Pam2Cys): better anti-viral efficacy compared to Pam2CysSK4
dose dependence of RV suppression ([6]; Study 1E: 1-10 pmol day −7): appeared to be dose dependant
RV copy number in lung ([6]; Study 1E: every dose 1-10 pmol day −7, day 2 p.i.): significant reduction in RV infection
viral clearance, day −7 + day −1 versus day −7 only ([6]; Study 1F: 2 pmol): enhanced viral clearance compared to mice dose only on day 7
reduced viral RNA ([6]; Study 1F: single treatment at day −7): 70%
reduction in viral RNA ([6]; Study 1F: treatment at both days −7 and −1): approx. 90%
RV copy numbers in lung ([6]; Study 1G: 10, 5, 2, 1 pmol 1 day post-infection, day 2 p.i.): reduces RV1B copy numbers in the lung
lung viral load ([6]; Study 1G: doses 5 pmole per mouse and lower): significant reduction in lung viral load
lung viral load ([6]; Study 1G: highest dose 10 pmole per mouse): less effective and not significant
activation of TLR-2 (SEAP reporter) (TLR-2): able to activate its proposed target (TLR-2)
RV-induced, steroid resistant neutrophilic inflammation (BAL inflammatory cells [7]; 2 pmol, all treatment protocols, with or without FP): prevented RV-induced and steroid resistant neutrophilic inflammation; also recorded: completely ameliorated RV-induced and steroid resistant neutrophilic inflammatory response; also recorded: complete suppression of RV-induced steroid resistant neutrophilic inflammation
BAL macrophages and lymphocytes (BAL inflammatory cells [7]; D-7 INNA-006 2 pmol with FP): increased macrophages and lymphocytes when given in conjunction with FP
BAL macrophages and lymphocytes (BAL inflammatory cells [7]; combined D-7 & D-1 INNA-006 2 pmol): increased macrophages and lymphocytes in BAL
BAL macrophages (BAL inflammatory cells [7]; combined D-7 & D-1 INNA-006 in FP treated mice): Increased Macrophages
total BAL leukocyte numbers (BAL inflammatory cells [7]; repeated 2 pmol INNA-006 (day −7 & day −1)): increased total leukocyte numbers
reduction of viral RNA levels (RV1B): approximately 50%
viral lung load ([8]; 2 pmol INNA-006, both treatment protocols, all groups): reduced virus lung load in all groups; also recorded: significant reduction in viral load with both treatment protocols
viral lung load / antiviral efficacy ([8]; repeated INNA-006 (D-7 & D-1) with FP): antiviral efficacy of repeated INNA-006 treatment was enhanced by FP; also recorded: best suppression of viral lung RNA
